Source: PMC12113998, “Exploring Multivalent Architectures for Binding and Stabilization of N-Acetylgalactosamine 6-Sulfatase” (Molecules, 2025)
Where “and” joins values, the source holds several entries; their conditions need not be identical. Identical values can stand only once. Marks after values point to notes of the source that are not given here.

Experiments:
[1] = target: T1, N-acetylgalactosamine-6-sulfatase (GALNS) (Homo sapiens, UniProt P34059); design: method as in doi:10.1039/C6RA15806D; settings: cited from earlier work
T1 construct: Isolated leukocytes were disrupted by sonication; from tissue; host or cells: human leukocytes from healthy donors (sonicated homogenate)
T1 sequence (P34059 27-522): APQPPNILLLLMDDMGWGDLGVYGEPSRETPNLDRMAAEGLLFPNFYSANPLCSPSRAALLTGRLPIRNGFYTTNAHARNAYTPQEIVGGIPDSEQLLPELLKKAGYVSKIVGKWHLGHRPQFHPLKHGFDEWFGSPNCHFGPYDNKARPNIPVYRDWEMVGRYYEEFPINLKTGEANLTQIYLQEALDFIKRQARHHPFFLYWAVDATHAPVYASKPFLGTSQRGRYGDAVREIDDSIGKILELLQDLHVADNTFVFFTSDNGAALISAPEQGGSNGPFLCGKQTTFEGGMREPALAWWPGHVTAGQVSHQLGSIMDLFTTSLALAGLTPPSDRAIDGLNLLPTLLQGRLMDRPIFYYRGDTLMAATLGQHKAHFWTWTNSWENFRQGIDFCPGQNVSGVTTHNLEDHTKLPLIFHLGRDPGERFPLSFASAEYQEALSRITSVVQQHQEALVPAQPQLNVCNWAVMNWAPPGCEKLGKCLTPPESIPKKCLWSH

[2] = target: T2, rhGALNS VIMIZIM® (Homo sapiens, UniProt P34059); assay: Stabilization of rhGALNS under thermal denaturation (48 °C, 40 and 60 min); type: biochemical
T2 construct: purchased BioMarin (VIMIZIM, elosulfase alfa)
T2 sequence (P34059 27-522): T1 sequence (P34059 27-522)
Protocol: (§1) The promising IC50 values observed for 1 and 36 prompted us to assess their effects on the commercially available wild-type recombinant GALNS (rhGALNS VIMIZIM®). […] Building on these findings, we investigated the potential stabilizing effect of these compounds on the tertiary structure of GALNS through a thermal denaturation study. rhGALNS was preincubated with varying concentrations of the compounds before being subjected to heating at 48 °C for 40 and 60 min. The relative enzyme activity was expressed as the ratio between the activity measured after thermal denaturation at 48 °C and that obtained under physiological conditions at 37 °C.
Figure 3 Stabilization of rhGALNS VIMIZIM® in the presence of 1 (A) and 36 (B) was evaluated in vitro by using heat inactivation. Relative enzymatic activity after thermal treatment (48 °C) for 40 and 60 min at the indicated inhibitor concentrations (μM) with respect to the corresponding assay at 37 °C (no denaturation). Data for control were obtained as above except that no inhibitor was present. Experiments were performed in triplicate (see Supporting Information). […]
The thermal stability induced by 1 and 36 against rhGALNS VIMIZIM® was determined by measuring the hydrolysis rate with 4-methylumbelliferyl-β-galactoside-6-sulfate.Na (6.66 mM) after denaturation of enzyme at 48 °C for 40 minutes or 60 minutes with or without (Ctrl) different concentrations of compounds. […]
After incubation 20 µL of 4-methylumbelliferyl-β-galactoside-6-sulfate.Na substrate solution in Na-Acetate/acetic acid buffer (0.1 M/0.1 M, pH 4.3) containing 0.1 M NaCl, 0.02% (w/v) NaN3 and 5 mM Pb-acetate was added. […] Fluorescence was measured in a SpectraMax M2 microplate reader (Molecular-Devices) using a 365 nm excitation wavelength and a 435 nm emission wavelength. […]
Figure S57. Activity of rhGALNS VIMIZIM® was determined after incubation for 0 minutes or 40 minutes or 60 minutes at 48 °C with or without (Ctrl) different concentrations of 1 by measuring the hydrolysis rate 4-methylumbelliferyl-β-galactoside-6-sulfate.Na. […]

[3] = target: T3, recombinant human GALNS (rhGALNS VIMIZIM®) (Homo sapiens, UniProt P34059); assay: IC50 on recombinant human GALNS (rhGALNS VIMIZIM); type: biochemical
T3 construct: purchased BioMarin (VIMIZIM, elosulfase alfa)
T3 sequence (P34059 27-522): T1 sequence (P34059 27-522)
Protocol: as §1
The IC 50 values of inhibitors against human GALNS in leukocytes isolated from healthy donors or against recombinant human GALNS (rhGALNS VIMIZIM®) were determined by measuring the initial hydrolysis rate with 4 -methylumbelliferyl-β-galactoside-6-sulfate.Na (6.66 mM) at different concentrations of inhibitors.
Data obtained were fitted to the following equation using the OriginPro 2021 (Version 2021. OriginLab Corporation, Northampton, MA, USA): where Vi/Vo, represent the ratio between the activity measured in the presence of the inhibitor (Vi) and the activity of the control without the inhibitor (Vo), “x” the inhibitor concentration, Max and Min, the maximal and minimal enzymatic activity observed, respectively. […]

enzyme activity with respect to the control after thermal denaturation ([2]; 500 µM compound, both time points (40 and 60 min)) | IC50 [3] | enzyme activity with respect to the control after thermal denaturation ([2]; 30 µM compound, 40 min) | enzyme activity with respect to the control after thermal denaturation ([2]; 30 µM compound, 60 min) | Structure (SMILES) | % Inhibition (1 mM) ([1]; 1 mM inhibitor, human leukocyte extracts) | IC50 ([1]; human leukocyte extracts) | rp/n ([1]; positive MVE as previously reported)
around two-fold | 110 µM |  |  | O=C(NC(COCc1cn(CCCCCCN2CC(O)C(O)C2CO)nn1)(COCc1cn(CCCCCCN2CC(O)C(O)C2CO)nn1)COCc1cn(CCCCCCN2CC(O)C(O)C2CO)nn1)c1cc(C(=O)NC(COCc2cn(CCCCCCN3CC(O)C(O)C3CO)nn2)(COCc2cn(CCCCCCN3CC(O)C(O)C3CO)nn2)COCc2cn(CCCCCCN3CC(O)C(O)C3CO)nn2)cc(C(=O)NC(COCc2cn(CCCCCCN3CC(O)C(O)C3CO)nn2)(COCc2cn(CCCCCCN3CC(O)C(O)C3CO)nn2)COCc2cn(CCCCCCN3CC(O)C(O)C3CO)nn2)c1 (centres unmarked) [Compound 1] | 94 ^[a] % | 47 ± 5 µM | 9.2 and 6.5–9.2
 | 30 µM | 1.3 fold | 2.4 fold | OCC1C(O)C(O)CN1CCCCCCn1cc(COCC(COCc2cn(CCCCCCN3CC(O)C(O)C3CO)nn2)(COCc2cn(CCCCCCN3CC(O)C(O)C3CO)nn2)NCc2cc(CNC(COCc3cn(CCCCCCN4CC(O)C(O)C4CO)nn3)(COCc3cn(CCCCCCN4CC(O)C(O)C4CO)nn3)COCc3cn(CCCCCCN4CC(O)C(O)C4CO)nn3)cc(CNC(COCc3cn(CCCCCCN4CC(O)C(O)C4CO)nn3)(COCc3cn(CCCCCCN4CC(O)C(O)C4CO)nn3)COCc3cn(CCCCCCN4CC(O)C(O)C4CO)nn3)c2)nn1 (centres unmarked) [Compound 36] |  |  | 
